Assay results as given in patent US20190328721A1, “METHOD OF ACTIVATING DENDRITIC CELLS” (KOREA INSTITUTE OF SCIENCE AND TECHNOLOGY, priority 2018, published 2019).

Tests used:
OT-1 T cells = test: Co-culture of OT-1 T cells with phagocytes isolated from B16F10-Ova-bearing mice (IFN-γ); format: in vivo
Description: In addition, the expression of IFN-γ in OT-1 T cells co-cultured with macrophages and dendritic cells isolated from the tumor-draining lymph nodes and the tumor tissues in the B16F10-Ova cancer model mice was assessed using IFN-γ ELISA kit (R&D Systems, Inc, USA). It was confirmed that the amount of IFN-γ was increased when the dendritic cells isolated from the tumor-draining lymph nodes and the tumor tissues were co-cultured with OT-1 T cells (FIG. 14D). However, there was no change in the amount of IFN-γ when macrophages and OT-1 T cells were co-cultured.
The present inventors investigated whether the combined administration of Y27632 and doxorubicin induces immunity enhancement through CD8 T cells. For this purpose, dendritic cells isolated from tumor-draining lymph nodes of B16F10-Ova-bearing cancer model mice were co-cultured with OT-1 T cells, and then the amount of IFN-γ was measured by IFN-γ ELISA kit (R&D Systems, USA). […] In addition, it was confirmed that the amount of IFN-γ-positive T cells increased when the dendritic cells derived from mice administered with the combined administration were co-cultured with OT-1 T cells (FIG. 18G).

dendritic cells = test: Flow cytometry of dendritic cells from B16F10-Ova-bearing mice (maturation, subsets, cross presentation); format: in vivo
Description: To confirm the effect of the ROCK inhibitor Y27632 on the maturation process of dendritic cells, the inventors administered Y27362 to B16F10-Ova-bearing cancer model animals according to the same administration schedule as in Example 2-1, and the expression of CD40 and CD86, which are dendritic cell maturation markers, was analyzed by flow cytometry.
Recently, it has been shown that CD103 (corresponding to CD141 in humans)-positive dendritic cells (CD103 DC) play an important role in cancer cell phagocytosis and T cell anticancer immunity among dendritic cells (Broz et al., Cancer Cell, 26 (5): 638-652, 2014). Therefore, in order to analyze the effect of the ROCK inhibitor on CD103 DC, Y27632 was administered to B16F10-Ova-bearing cancer model mice according to the administration schedule described in the above Example 2-1, tumor tissues and tumor-draining lymph nodes were excised, and then flow cytometry analysis was performed using antibodies specifically binding to dendritic cell markers (CD11b, CD103 and CD8). It was confirmed that the ratio of CD103 DC was increased by Y27632 in both the tumor-draining lymph nodes (FIG. 15A) and the tumor tissues (FIG. 15B). On the other hand, in the case of CD11b-positive and CD8-positive dendritic cells, no change due to administration of Y27632 was observed.
The present inventors analyzed cross presentation activity which is one of functions of dendritic cells via flow cytometry analysis using an antibody capable of detecting a cancer antigen (H-2K^b-Ova) capable of activating T cells, through flow cytometry analysis using an antibody (H-2K^b monoclonal antibody, Invitrogen, USA). It was confirmed that the cross presentation of CD103 DC was increased by Y27632 in both tumor-draining lymph nodes (FIG. 15C) and tumor tissues (FIG. 15D).
Further, the present inventors analyzed CD40, which is one of the markers of dendritic cell function capable of activating T cells and a DC maturation marker of dendritic cells, by flow cytometry analysis using anti-CD40 antibodies. As shown in FIGS. 15E and 15F, it was confirmed that the maturation of CD103 DC was increased by Y27632 in the tumor-draining lymph nodes.
The present inventors analyzed a series of immunological induction processes occurring after the phagocytosis against cancer cells or cancer-specific antigens in order to analyze the mechanism of the combination therapy for the anti-cancer immune response. Specifically, in order to confirm the effect of the combination therapy on the dendritic cell maturation, Y27632 and doxorubicin were administered to B16F10-Ova-bearing cancer model mice as described above, and then tumor-draining lymph nodes were isolated and the expression of CD40 and CD86, which are dendritic cell maturation markers, was analyzed by flow cytometry analysis.
Further, in order to confirm the effect of the combined treatment on the cross presentation process to the dendritic cells, the present inventors administered Y27632 and doxorubicin to B16F10-Ova-bearing cancer model mice as described above, isolated the tumor-draining lymph nodes, and then cross presentation activity, which is one of functions of dendritic cells, was analyzed via flow cytometry analysis using an antibody capable of detect a cancer antigen (H-2K^b-Ova) capable of activating T cells, through flow cytometry analysis using an antibody (H-2K^b monoclonal antibody, Invitrogen, USA).
The present inventors then investigated the effect of the combination of the drugs on the maturation process of dendritic cells. Specifically, the tumor-draining lymph nodes were isolated after administration of Y27632 and/or cisplatin in the B16F10-Ova-bearing cancer model, and the expression level of CD40 and CD86, the dendritic cell maturation markers, was analyzed by flow cytometry. As shown in FIG. 19C and 19D, there was no influence on the maturation of dendritic cells when Y27632 alone, cisplatin alone, or the combination of the two were administered (FIGS. 19C and 19D). […]

[1] = from tumor-draining lymph nodes
[2] = tumor-draining lymph nodes, cisplatin study
[3] = tumor-draining lymph nodes, doxorubicin 5 mg/kg, Y27632 10 mg/kg

C[C@@H](N)[C@H]1CC[C@H](C(=O)Nc2ccncc2)CC1 [Y27632]
amount of IFN-γ, dendritic cells co-cultured with OT-1 T cells (OT-1 T cells; dendritic cells from tumor-draining lymph nodes and tumor tissues): increased | T cell priming (amount of IFN-γ), dendritic cells co-cultured with OT-1 T cells (OT-1 T cells; dendritic cells from tumor-draining lymph nodes, doxorubicin study): increased | proportion of IFN-γ-positive T cells, dendritic cells co-cultured (OT-1 T cells; [1]): increased | proportion of IFN-γ-positive T cells, macrophages co-cultured (OT-1 T cells; [1]): did not affect | amount of IFN-γ, macrophages co-cultured with OT-1 T cells (OT-1 T cells; mouse, in vivo): no change | ratio of CD8-positive dendritic cells (dendritic cells; mouse, in vivo): no change | ratio of CD11b-positive dendritic cells (dendritic cells; mouse, in vivo): no change | cross presentation (H-2Kb-Ova) of CD103 DC (dendritic cells; tumor tissues): increased | ratio of CD103 DC (dendritic cells; tumor tissues): increased | expression of CD40 and CD86 in dendritic cells (dendritic cells; tumor-draining lymph node, schedule of Example 2-1): did not affect | cross presentation (H-2Kb-Ova) of CD103 DC (dendritic cells; tumor-draining lymph nodes): increased | cross-presentation (H-2Kb-Ova) in CD8 DCs (dendritic cells; tumor-draining lymph nodes): increased | maturation of CD103 DC (CD40) (dendritic cells; tumor-draining lymph nodes): increased | ratio of CD103 DC (dendritic cells; tumor-draining lymph nodes): increased | cross-presentation function (H-2Kb-Ova) of dendritic cells (dendritic cells; [2]): increase | maturation of dendritic cells (CD40 and CD86) (dendritic cells; [2]): no influence | antigenic cross presentation (H-2Kb-Ova) in the dendritic cells (dendritic cells; [3]): did not significantly increase | dendritic cell maturation (expression of CD40 and CD86) (dendritic cells; [3]): no effect
